# Results as given in US9517200B2, “Methods of delivering pharmaceutical agents” (Massachusetts Eye and Ear Infirmary, priority 2011, dated 2016).
# Test system: 6-hydroxydopamine (6-OHDA) injury Parkinson's Disease mouse model
# Assay: Apomorphine-induced rotational behavior in unilateral striatal 6-OHDA injury mice
# Format: in vivo
# Conditions: intraperitoneal injection, 300 μL, 0.065 mg/mL, two weeks post-injury
# Method: The details of these experiments are described below.
# The mice underwent unilateral striatal 6-hydroxydopamine (6-OHDA) injection (3.2 μg/μL, 0.5 μL/min) according to Francardo et al. (Neurobiol. Dis. 42:327-340, 2011). […] The placement of a SEM graft over the skull of the mice was performed as described above. The duration of rotational behavior was determined in the treated mice.
# The position of the mice was recorded by a camera (while they move freely in an arena). The number of contralateral rotations per minute was quantified using a custom analysis program written in Matlab and C++. Statistical analyses were performed using a Student's t-test to compare results between treatment groups (Stata v6.0).
smiles,measurement,value
CN1CCc2cccc3c2[C@H]1Cc1ccc(O)c(O)c1-3 [apomorphine],rotational behavior (contralateral turns per minute),increased
